The structures appear in SMILES notation.

This assay has as its target T1, APOL1 G1 Protein (Homo sapiens, UniProt O14791, I384M/S342G).
T1 sequence (O14791 28-398 S342G/I384M): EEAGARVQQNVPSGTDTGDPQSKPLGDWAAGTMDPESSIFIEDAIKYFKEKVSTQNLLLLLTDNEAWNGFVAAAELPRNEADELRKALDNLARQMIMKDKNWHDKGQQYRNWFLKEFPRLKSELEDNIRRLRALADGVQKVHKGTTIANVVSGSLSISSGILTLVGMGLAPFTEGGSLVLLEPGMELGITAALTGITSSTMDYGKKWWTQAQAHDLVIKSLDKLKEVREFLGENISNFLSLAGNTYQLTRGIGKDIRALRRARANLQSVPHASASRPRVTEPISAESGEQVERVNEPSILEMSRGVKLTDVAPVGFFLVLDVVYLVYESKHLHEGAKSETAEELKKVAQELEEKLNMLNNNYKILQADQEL
Briefly: Trypanosoma brucei brucei lysis assay using APOL1 recombinant protein (AlamarBlue viability readout). The class given is cell-based. The settings on record: Trypanosoma brucei brucei (Lister 427 VSG 221 bloodstream form) lysis by 0.05 μg/mL recombinant APOL1 G1, 16 hrs. The source says:
Trypanosoma brucei brucei is a blood stream parasite to which human, gorillas and baboon are immune due to the presence of the APOL1 protein in their HDL particles. The protein is uptaken by the parasite via the TbHpHb receptor located in its flagellar pocket and is bonded by the Hpr protein contained in the HDL particles which triggers the receptor endocytosis by the parasite.
Following endocytosis, the formed vesicle containing the HDL particle matures from early to late endosome, and subsequently to lysosome. The concomitant pH change in the lumen of the vesicle triggers the insertion of the APOL1 protein into the membrane of the late endosome/lysosome and hereby triggers lysosomal membrane premeabilisation and as a further downstream event, trypanosome lysis. Trypanosoma brucei brucei is sensitive to lysis by all three APOL1 variants (G0, G1, and G2).
The Trypanosoma brucei brucei lysis assay is a lysis assay of the parasite using recombinant APOL1 protein variant followed by a fluorescent detection method of viability by the addition of AlamarBlue reagent to the assay well, a general metabolic redox indicator (AlamarBlue assay).
Briefly, the AlamarBlue active compound, the resazurin, a blue, water soluble, non-toxic and cell permeable molecule, which can be followed by absorbance, is reduced by various metabolic pathways into resorufin, a red compound which can be followed by either absorbance or fluorescence. The assay allows the calculation of the percent viability (percent of living Trypanosomes remaining in each well) at the end of a lysis relative to the untreated condition by interpolation of fluorescent values (FLU) on a standard curve with a known amount of seeded trypanosome/well.
Trypanosoma brucei brucei (ATCC, Cat. No. PRA-382) • Lister 427 VSG 221 bloodstream form.
Thaw/Expansion Media (ATCC Medium 2834 Modified HMI-9 Medium)
Equipment • E1-Clip Tip pipette 12 channel adjustable 2-125 μL, Cat. No. 4672070BT • ThermoFisher MultiDrop 384, Cat. No. 5840300 • Multidrop • Agilent Bravo, Cat. No. G5409A • Bravo • SpectraMax M5
Trypanosoma brucei brucei Culture
Step 2, Day 4 • Centrifuge at 800×g for 5 minutes at room temperature. • Resuspend in 1 mL media. • Make a 1:25 fold dilution (10 μL/240 μL media). • Count on a hemocytometer (after adding parasites). • Let sit for 1-2 minutes for the parasites to settle. • Count should be approximately 100 viable motile parasites/16 grid or approximately 25×10^6 parasites/flask. • Passage the parasites by adding 1×10^6 parasites/T75 flask in 20 mL media. • Passage the parasites by adding 2.33×10^6 parasites/T175 flask in 46.6 mL media. • For every T75 flask should make enough for approximately 1.5×384 well assay plates. • For every T175 flask should make enough for approximately 3.8×384 well assay plates.
Step 3. Day 6 • Centrifuge at 800×g for 5 minutes. • Resuspend in 3 mL assay media (No phenol red, no FBS) per 75 starting flask. • Resuspend in 7 mL assay media (No phenol red, no FBS) per 175 flask • Make a 1:25 fold dilution. • Count by hemocytometer. • Every T75 flask set up should have approximately 75×10^6 parasites/flask (verify doubling time=8.7 hrs 1 hr). • Every T175 flask set up should have approximately 175×10^6 parasites/flask (verify doubling time=8.7 hrs±1 hr). • Require 46×10^6 parasites per 384 well plate (at 120,000 parasites per well).
Step 2, Day 2 • Centrifuge at 800×g for 5 minutes at room temperature. • Resuspend in 1 mL media. • Make a 1:25 fold dilution (10 L/240 μL media). • Let sit for 1-2 minutes for the parasites to settle. • Count should be approximately 100 viable motile parasites/16 grid or approximately 8×10^6 parasites per flask. • Passage the parasites by adding 1.25×10^6 parasites per T75 flask in 20 mL media. • For every T75 flask set up should have approximately 1.5×384 well assay plates. • For every T175 flask setup should have approximately 3.8×384 well assay plates. […]
For orientation: Alamar Blue is a resazurin reagent that responds to reducing activity.
A word on the IC50: it is the concentration that gives 50% inhibition. Regarding `O=C(CCc1c(-c2ccccc2)[nH]c2ccccc12)N[C@@H]1C(=O)NC[C@H]1O` [Compound 86], the IC50 was below 250 nM.

With `O=C(CCc1c(-c2ccc(F)cc2)[nH]c2c(F)cc(C(F)(F)F)cc12)N[C@@H]1C(=O)NC[C@H]1O` [Compound 101, 3-[7-fluoro-2-(4-fluorophenyl)-5-(trifluoromethyl)-1H-indol-3-yl]-N-[(3S,4R)-4-hydroxy-2-oxo-pyrrolidin-3-yl]propanamide], the IC50 is below 250 nM.

As for `O=C(CCc1c(-c2ccc(F)cc2)[nH]c2ccc(OCc3ccccc3)cc12)N[C@H]1CCNC1=O` [Compound 54, 3-[5-benzyloxy-2-(4-fluorophenyl)-1H-indol-3-yl]-N-[(3S)-2-oxopyrrolidin-3-yl]propanamide], the IC50 is 250 to 1000 nM.

Regarding `Cc1cc(-c2[nH]c3ccccc3c2CCC(=O)N[C@@H]2C(=O)NC[C@H]2O)ccc1F` [Compound 125], the IC50 is below 250 nM.

Take `O=C(CCc1c(-c2ccc(F)cc2)[nH]c2c(OC(F)F)cc(F)cc12)N[C@@H]1C(=O)NC[C@H]1O` [Compound 107]: the IC50 was 250 to 1000 nM.

On to `O=C(CCc1c(-c2ccc(F)cc2)[nH]c2c(F)c(F)ccc12)N[C@@H]1C(=O)NC[C@H]1O` [Compound 58], for which the IC50 was below 250 nM.

`O=C(CCc1c(-c2ccccc2)[nH]c2c(C(F)(F)F)cccc12)N[C@@H]1C(=O)NC[C@H]1O` [Compound 112, N-[(3S,4R)-4-hydroxy-2-oxo-pyrrolidin-3-yl]-3-[2-phenyl-7-(trifluoromethyl)-1H-indol-3-yl]propanamide]: the IC50 was above 1000 nM.

With `O=C1C[C@@H](NC(=O)CCc2c(-c3ccc(F)cc3)[nH]c3c(F)cc(F)cc23)C(=O)N1` [Compound 16], the IC50 lay within 250 to 1000 nM.

With `O=C(CCc1c(-c2ccc(Cl)cc2)[nH]c2ccccc12)N[C@@H]1C(=O)NC[C@H]1O` [Compound 128, 3-[2-(4-chlorophenyl)-1H-indol-3-yl]-N-[(3S,4R)-4-hydroxy-2-oxo-pyrrolidin-3-yl]propanamide], the IC50 is below 250 nM.

As to `O=C(CCc1c(-c2ccc(F)cc2)[nH]c2ccc(F)cc12)N[C@H]1CCNC1=O` [Compound 47], the IC50 is below 250 nM.

Turning to `O=C(CCc1c(-c2ccccc2)[nH]c2cc(F)c(F)cc12)N[C@@H]1C(=O)NC[C@H]1O` [Compound 82], the IC50 is below 250 nM.

As to `O=C(CCc1c(-c2ccc(C(F)(F)F)cc2)[nH]c2ccccc12)N[C@@H]1C(=O)NC[C@H]1O` [Compound 123], the IC50 is below 250 nM.

For the molecule `O=C(CCc1c(-c2ccccc2)[nH]c2c(F)cc(F)cc12)N[C@@H]1C(=O)NC[C@H]1O` [Compound 26], the IC50 was below 250 nM.

Regarding `Cc1cc(F)c2[nH]c(-c3ccc(F)cc3)c(CCC(=O)N[C@@H]3C(=O)NC[C@H]3O)c2c1` [Compound 29], the IC50 is below 250 nM.

Take `O=C(CCc1c(-c2ccc(OC(F)(F)F)cc2)[nH]c2ccccc12)N[C@@H]1C(=O)NC[C@H]1O` [Compound 118]: the IC50 is below 250 nM.

With `O=C1NC[C@@H](O)[C@@H]1NC(=O)C(F)(F)Cc1c(-c2ccc(F)cc2)[nH]c2c(F)cc(F)cc12` [Compound 95, 3-[5,7-difluoro-2-(4-fluorophenyl)-1H-indol-3-yl]-2,2-difluoro-N-[(3S,4R)-4-hydroxy-2-oxo-pyrrolidin-3-yl]propanamide], the IC50 is below 250 nM.

`O=C(CCc1c(-c2ccc(F)cc2)[nH]c2ccc(F)cc12)N[C@@H]1C(=O)NC[C@H]1O` [Compound 46]: the IC50 is below 250 nM.

Consider `O=C(CCc1c(-c2ccc(F)cc2)[nH]c2c(F)ccc(F)c12)N[C@H]1CCNC1=O` [Compound 78], for which the IC50 was above 1000 nM.

`O=C(CCc1c(-c2ccc(F)cc2)[nH]c2c(Cl)cccc12)N[C@H]1CCNC1=O` [Compound 72]: the IC50 is below 250 nM.

As to `O=C(CCc1c(-c2cc(F)cc(F)c2)[nH]c2ccccc12)N[C@@H]1C(=O)NC[C@H]1O` [Compound 127, 3-[2-(3,5-difluorophenyl)-1H-indol-3-yl]-N-[(3S,4R)-4-hydroxy-2-oxo-pyrrolidin-3-yl]propanamide], the IC50 fell in the range of 250 to 1000 nM.

On to `O=C(CCc1c(-c2ccc(F)cc2)[nH]c2c(Cl)cccc12)N[C@@H]1C(=O)NC[C@H]1O` [Compound 73], for which the IC50 was below 250 nM.

On to `CN(C(=O)CCc1c(-c2ccc(F)cc2)[nH]c2ccc(F)cc12)C1CCNC1=O` (stereo not shown) [Compound 50], for which the IC50 lay in the range of 250 to 1000 nM.

Turning to `Cc1cc(F)cc2c(CCC(=O)N[C@@H]3C(=O)NC[C@H]3O)c(-c3ccc(F)cc3)[nH]c12` [Compound 37], the IC50 was below 250 nM.

In the case of `O=C(CCc1c(-c2ccc(F)cc2)[nH]c2ccc(C(F)(F)F)cc12)N[C@@H]1C(=O)NC[C@H]1O` [Compound 108, 3-[2-(4-fluorophenyl)-5-(trifluoromethyl)-1H-indol-3-yl]-N-[(3S,4R)-4-hydroxy-2-oxo-pyrrolidin-3-yl]propanamide], the IC50 was below 250 nM.

For the molecule `Cc1c(F)c(F)cc2c(CCC(=O)N[C@@H]3C(=O)NC[C@H]3O)c(-c3ccc(F)cc3)[nH]c12` [Compound 98, 3-[5,6-difluoro-2-(4-fluorophenyl)-7-methyl-1H-indol-3-yl]-N-[(3S,4R)-4-hydroxy-2-oxo-pyrrolidin-3-yl]propanamide], the IC50 is below 250 nM.

In the case of `O=C(CCc1c(-c2ccc(F)cc2)[nH]c2ccc(F)cc12)NC1CCNC1=O` (stereo not shown) [Compound 48], the IC50 was below 250 nM.

On to `O=C(CCc1c(-c2ccc(F)cc2)[nH]c2c(F)cccc12)N[C@@H]1C(=O)NC[C@H]1O` [Compound 76], for which the 50% inhibitory concentration (IC50) is below 250 nM.

Consider `CC1C[C@H](NC(=O)CCc2c(-c3ccc(F)cc3)[nH]c3c(F)cc(F)cc23)C(=O)N1` (mixture of isomers) [Compound 6], for which the IC50 lay in the range of 250 to 1000 nM.

On to `O=C(CCc1c(-c2ccccc2)[nH]c2c(F)c(F)c(F)cc12)N[C@@H]1C(=O)NC[C@H]1O` [Compound 80], for which the IC50 was below 250 nM.

On to `O=C(CCc1c(-c2ccc(F)c(F)c2)[nH]c2ccccc12)N[C@@H]1C(=O)NC[C@H]1O` [Compound 129, 3-[2-(3,4-difluorophenyl)-1H-indol-3-yl]-N-[(3S,4R)-4-hydroxy-2-oxo-pyrrolidin-3-yl]propanamide], for which the IC50 is below 250 nM.

Consider `COc1cc(F)cc2c(CCC(=O)N[C@@H]3C(=O)NC[C@H]3O)c(-c3ccc(F)cc3)[nH]c12` [Compound 40], for which the IC50 was below 250 nM.

Regarding `O=C(CCc1c(-c2ccccc2)[nH]c2cc(F)cc(F)c12)N[C@@H]1C(=O)NC[C@H]1O` [Compound 85], the IC50 is below 250 nM.

On to `O=C(CCc1c(-c2ccccc2)[nH]c2c(F)c(F)ccc12)N[C@@H]1C(=O)NC[C@H]1O` [Compound 59], for which the IC50 was below 250 nM.

Take `O=C(CCc1c(-c2ccc(Cl)c(F)c2)[nH]c2ccccc12)N[C@@H]1C(=O)NC[C@H]1O` [Compound 120]: the IC50 is below 250 nM.

The values above are taken from patent US11618746B2, “Inhibitors of APOL1 and methods of using same” (Vertex Pharmaceuticals Incorporated, priority 2018, dated 2023).
